Assay results taken from patent publication US20230339952A1, “MACROCYCLIC HETEROCYCLES AND USES THEREOF” (Kumquat Biosciences Inc., priority 2022, published 2023).
Read-outs that look alike come from different tables or passages of the source.

Columns and labels:
SOS1 = SOS1 (Homo sapiens (Human), UniProt Q07889); test: Ras-SOS interaction assay (HTRF), K-Ras G13D utilized; format: binding; settings: K-Ras G13D
[1] = tested on: NCI-H1975 (ATCC CRL-5908) cell line comprising an EGFR T790M L858R double mutation; test: EGFR-SOS cellular inhibition assay (CellTiter-Glo cell proliferation); format: cell-based; settings: Homo sapiens
Protocol: A CellTiter-Glo (CTG) luminescent based assay (Promega) is used to assess growth of the cells, as a measurement of the ability of the compounds herein to inhibit EGFR signaling in the cells. […] The day after plating, cells are treated with a dilution series (e.g., a 9 point 3-fold dilution series) of the compounds herein (e.g., approximately 125 μL final volume per well).

[2] = 120 h, NCI-H1975 cell proliferation, approximately 5 days, read-out: H1975 IC50
[3] = read-out: IC50 value against SOS1

Chain of SOS1 (Q07889 564-1049): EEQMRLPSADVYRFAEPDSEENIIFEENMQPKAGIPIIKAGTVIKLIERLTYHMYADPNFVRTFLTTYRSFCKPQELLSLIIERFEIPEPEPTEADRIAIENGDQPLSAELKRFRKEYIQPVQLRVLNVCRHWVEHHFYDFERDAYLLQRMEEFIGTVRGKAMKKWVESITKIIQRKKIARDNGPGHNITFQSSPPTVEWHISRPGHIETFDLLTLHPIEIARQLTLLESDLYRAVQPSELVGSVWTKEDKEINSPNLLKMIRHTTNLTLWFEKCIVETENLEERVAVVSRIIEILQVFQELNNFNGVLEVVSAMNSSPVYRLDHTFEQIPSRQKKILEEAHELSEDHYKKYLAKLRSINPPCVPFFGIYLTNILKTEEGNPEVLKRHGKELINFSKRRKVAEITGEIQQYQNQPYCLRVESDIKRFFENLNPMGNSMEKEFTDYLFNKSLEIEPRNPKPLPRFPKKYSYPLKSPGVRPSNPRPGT

| SMILES | IC50 (SOS1; read-out: SOS1 IC50) | IC50 [1, 2] | IC50 (SOS1; [3]) | IC50 ([1]; NCI-H1975, EGFR T790M L858R double mutation, read-out: IC50 in inhibiting growth of NCI-H1975 cell line) |
| --- | --- | --- | --- | --- |
| CC(C)N1CCC(c2cc3c4ncnc3n(c2=O)CCCCCCN2CCC(CC2)CC(F)(F)c2cccc(c2F)[C@@H](C)N4)CC1 [Compound 140, (3R)-4^2,5,5-trifluoro-1^6-(1-isopropylpiperidin-4-yl)-3-methyl-1^7,1^8-dihydro-2-aza-1(4,8)-pyrido[2,3-d]pyrimidina-7(4,1)-piperidina-4(1,3)-benzenacyclotridecaphan-1^7-one] | < 100 nM | < 1000 nM | – | – |
| Cc1nnc2c3cc(N4CCOCC4)nc(c13)OCCCCCCN1CCC(CC1)C(F)(F)c1cccc(c1)[C@@H](C)N2 [Compound 141, (R)-2,2-difluoro-6^4,4-dimethyl-6^7-morpholino-7-oxa-5-aza-6(1,5)-pyrido[3,4-d]pyridazina-1(4,1)-piperidina-3(1,3)-benzenacyclotridecaphane] | < 100 nM | < 1000 nM | – | – |
| C[C@H]1Nc2ncnc3c2cc(C2(C#N)CC2)c(=O)n3CCCNC(=O)CCN2CCC(CC2)C(F)(F)c2cccc1c2 [Compound 144, 1-((4R)-2,2-difluoro-4-methyl-6^7,11-dioxo-6^7,6^8-dihydro-5,10-diaza-6(4,8)-pyrido[2,3-d]pyrimidina-1(4,1)-piperidina-3(1,3)-benzenacyclotridecaphane-6^6-yl)cyclopropane-1-carbonitrile] | < 100 nM | < 1000 nM | – | – |
| C[C@H]1Nc2ncnc3c2cc(C2(C#N)CC2)c(=O)n3CCCCNC(=O)CN2CCC(CC2)C(F)(F)c2cccc1c2F [Compound 147, 1-((4R)-3^2,2,2-trifluoro-4-methyl-6^7,12-dioxo-6^7,6^8-dihydro-5,11-diaza-6(4,8)-pyrido[2,3-d]pyrimidina-1(4,1)-piperidina-3(1,3)-benzenacyclotridecaphane-6^6-yl)cyclopropane-1-carbonitrile] | < 100 nM | < 1000 nM | – | – |
| CC(C)N1CCC(c2cc3c4ncnc3n(c2=O)CCCC/C=C/CN2CCC(CC2)C(F)(F)c2cccc(c2)[C@@H](C)N4)CC1 [Compound 149, (4R,E)-2,2-difluoro-6^6-(1-isopropylpiperidin-4-yl)-4-methyl-6^7,6^8-dihydro-5-aza-6(4,8)-pyrido[2,3-d]pyrimidina-1(4,1)-piperidina-3(1,3)-benzenacyclotridecaphan-11-en-6^7-one] | < 100 nM | < 1000 nM | – | – |
| C[C@H]1Nc2ncnc3c2cc(C2CCS(=O)(=O)CC2)c(=O)n3CCCCCN2CCC(CC2)CCC(F)(F)c2cccc1c2F [Compound 151, (3R)-1^6-(1,1-dioxidotetrahydro-2H-thiopyran-4-yl)-4^2,5,5-trifluoro-3-methyl-1^7,1^8-dihydro-2-aza-1(4,8)-pyrido[2,3-d]pyrimidina-8(4,1)-piperidina-4(1,3)-benzenacyclotridecaphan-1^7-one] | < 100 nM | < 1000 nM | – | – |
| C[C@H]1Nc2ncnc3c2cc(C2(C#N)CC2)c(=O)n3CCCCNC(=O)[C@H](C)N2CCC(CC2)C(F)(F)c2cccc1c2 [Compound 153, 1-((4R,13S)-2,2-difluoro-4,13-dimethyl-6^7,12-dioxo-6^7,6^8-dihydro-5,11-diaza-6(4,8)-pyrido[2,3-d]pyrimidina-1(4,1)-piperidina-3(1,3)-benzenacyclotridecaphane-6^6-yl)cyclopropane-1-carbonitrile] | < 100 nM | < 1000 nM | – | – |
| CC(C)N1CCN(c2cc3c4ncnc3n(c2=O)CCCCCN2CCC(CC2)CCC(F)(F)c2cccc(c2)[C@@H](C)N4)CC1 [Compound 154, (3R)-5,5-difluoro-1^6-(4-isopropylpiperazin-1-yl)-3-methyl-1^7,1^8-dihydro-2-aza-1(4,8)-pyrido[2,3-d]pyrimidina-8(4,1)-piperidina-4(1,3)-benzenacyclotridecaphan-1^7-one] | < 100 nM | < 1000 nM | – | – |
| C[C@H]1Nc2ncnc3c2cc(C2CCS(=O)(=O)CC2)c(=O)n3CCCCCCN2CCC(CC2)CC(F)(F)c2cccc1c2F [Compound 156, (3R)-1^6-(1,1-dioxidothiomorpholino)-4^2,5,5-trifluoro-3-methyl-1^7,1^8-dihydro-2-aza-1(4,8)-pyrido[2,3-d]pyrimidina-7(4,1)-piperidina-4(1,3)-benzenacyclotridecaphan-1^7-one] | < 100 nM | < 1000 nM | – | – |
| C[C@H]1Nc2ncnc3c2cc(C2(C#N)CC2)c(=O)n3CC(=O)NCCCCN2CCC(CC2)C(F)(F)c2cccc1c2F [Compound 158, 1-((4R)-3^2,2,2-trifluoro-4-methyl-6^7,8-dioxo-6^7,6^8-dihydro-5,9-diaza-6(4,8)-pyrido[2,3-d]pyrimidina-1(4,1)-piperidina-3(1,3)-benzenacyclotridecaphane-6^6-yl)cyclopropane-1-carbonitrile] | < 100 nM | < 1000 nM | – | – |
| C[C@H]1Nc2ncnc3c2cc(C2(C#N)CC2)c(=O)n3CCCC/C=C\CN2CCC(CC2)C(F)(F)c2cccc1c2 [Compound 159, 1-((4R,Z)-2,2-difluoro-4-methyl-6^7-oxo-6^7,6^8-dihydro-5-aza-6(4,8)-pyrido[2,3-d]pyrimidina-1(4,1)-piperidina-3(1,3)-benzenacyclotridecaphan-11-en-6^6-yl)cyclopropane-1-carbonitrile] | < 100 nM | < 1000 nM | < 50 nM | < 500 nM |
| C[C@H]1Nc2ncnc3c2cc(C2CCS(=O)(=O)CC2)c(=O)n3CCCCn2cc(nn2)CN2CCC(CC2)C(F)(F)c2cccc1c2 [Compound 160, (6R,Z)-8^6-(1,1-dioxidotetrahydro-2H-thiopyran-4-yl)-4,4-difluoro-6-methyl-8^7,8^8-dihydro-1^1H-7-aza-8 (4,8)-pyrido[2,3-d]pyrimidina-3(1,4)-piperidina-1(4,1)-triazola-5(1,3)-benzenacyclododecaphan-8^7-one] | < 100 nM | < 1000 nM | – | – |
| C[C@H]1Nc2ncnc3c2cc(C2CCS(=O)(=O)CC2)c(=O)n3CCCCCCCN2CC(C2)CC(F)(F)c2cccc1c2 [Compound 161, (3R)-1^6-(1,1-dioxidotetrahydro-2H-thiopyran-4-yl)-5,5-difluoro-3-methyl-1^7,1^8-dihydro-2-aza-1(4,8)-pyrido[2,3-d]pyrimidina-7(3,1)-azetidina-4(1,3)-benzenacyclotetradecaphan-1^7-one] | < 100 nM | < 1000 nM | – | – |
| CC(C)N1CCC(c2cc3c4ncnc3n(c2=O)CCCCCCCN2CCC(CC2)C(F)(F)c2cccc(c2F)[C@@H](C)N4)CC1 [Compound 162, (4R)-3^2,2,2-trifluoro-6^6-(1-isopropylpiperidin-4-yl)-4-methyl-6^7,6^8-dihydro-5-aza-6(4,8)-pyrido[2,3-d]pyrimidina-1(4,1)-piperidina-3(1,3)-benzenacyclotridecaphan-6^7-one] | < 100 nM | < 1000 nM | – | – |
| CC(C)N1CCN(c2cc3c4ncnc3n(c2=O)CC(=O)N(C)CCCCN2CCC(CC2)C(F)(F)c2cccc(c2)[C@@H](C)N4)CC1 [Compound 163, (4R)-2,2-difluoro-6^6-(4-isopropylpiperazin-1-yl)-4,9-dimethyl-6^7,6^8-dihydro-5,9-diaza-6(4,8)-pyrido[2,3-d]pyrimidina-1(4,1)-piperidina-3(1,3)-benzenacyclotridecaphane-6^7,8-dione] | < 100 nM | < 1000 nM | – | – |
| Cc1nc2c3cc(C4(C#N)CC4)c(=O)n(c3n1)CCC/C=C\CN1CCC(CC1)C(F)(F)c1cccc(c1)[C@@H](C)N2 [Compound 166, 1-((4R,Z)-2,2-difluoro-6^2,4-dimethyl-6^7-oxo-6^7,6^8-dihydro-5-aza-6(4,8)-pyrido[2,3-d]pyrimidina-1(4,1)-piperidina-3(1,3)-benzenacyclododecaphan-10-en-6^6-yl)cyclopropane-1-carbonitrile] | < 100 nM | < 1000 nM | < 50 nM | – |
| Cc1nc2c3cc(C4(C#N)CC4)c(=O)n(c3n1)CCCC/C=C\CN1CCC(CC1)C(F)(F)c1cccc(c1F)[C@@H](C)N2 [Compound 168, 1-((4R,Z)-3^2,2,2-trifluoro-6^2,4-dimethyl-6^7-oxo-6^7,6^8-dihydro-5-aza-6(4,8)-pyrido[2,3-d]pyrimidina-1(4,1)-piperidina-3(1,3)-benzenacyclotridecaphan-11-en-6^6-yl)cyclopropane-1-carbonitrile] | < 100 nM | 1000 to 10000 nM | < 50 nM | – |
| Cc1nc2c3cc(C4(C#N)CC4)c(=O)n(c3n1)CCCCCN1CCC(CC1)C(F)(F)c1cccc(c1)[C@@H](C)N2 [Compound 169, 1-((4R)-2,2-difluoro-6^2,4-dimethyl-6^7-oxo-6^7,6^8-dihydro-5-aza-6(4,8)-pyrido[2,3-d]pyrimidina-1(4,1)-piperidina-3(1,3)-benzenacycloundecaphane-6^6-yl)cyclopropane-1-carbonitrile] | < 100 nM | < 1000 nM | – | – |
| Cc1nc2c3cc(C4(C#N)CC4)c(=O)n(c3n1)CC/C=C\CN1CCC(CC1)C(F)(F)c1cccc(c1)[C@@H](C)N2 [Compound 172, 1-((4R,Z)-2,2-difluoro-6^2,4-dimethyl-6^7-oxo-6^7,6^8-dihydro-5-aza-6(4,8)-pyrido[2,3-d]pyrimidina-1(4,1)-piperidina-3(1,3)-benzenacycloundecaphan-9-en-6^6-yl)cyclopropane-1-carbonitrile] | 100 to 5000 nM | < 1000 nM | – | – |
| COc1nnc2c3cc(C4CCS(=O)(=O)CC4)c(nc13)OCCCCCCCN1CCC(CC1)C(F)(F)c1cccc(c1F)[C@@H](C)N2 [Compound 177, (R)-4-(3^2,2,2-trifluoro-6^8-methoxy-4-methyl-7-oxa-5-aza-6(5,2)-pyrido[2,3-d]pyridazina-1(4,1)-piperidina-3(1,3)-benzenacyclotetradecaphane-6^3-yl)tetrahydro-2H-thiopyran 1,1-dioxide] | < 100 nM | < 1000 nM | – | – |
| C[C@H]1Nc2ncnc3c2cc(N2CCN(C4CCN(C)CC4)CC2)c(=O)n3CCCCCCCN2CCC(CC2)C(F)(F)c2cccc1c2F [Compound 178, (4R)-3^2,2,2-trifluoro-4-methyl-6^6-(4-(1-methylpiperidin-4-yl)piperazin-1-yl)-6^7,6^8-dihydro-5-aza-6(4,8)-pyrido[2,3-d]pyrimidina-1(4,1)-piperidina-3(1,3)-benzenacyclotridecaphan-6^7-one] | < 100 nM | < 1000 nM | – | – |
